Experimental data from PubChem BioAssay (NCI).
“And” between values parts separate entries of the source, which are not always exact repeats. Identical values can stand only once.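 In this assay, cells in 96-well plates receive the compound at five concentrations for 48 hours. Endpoints are linearly interpolated between the surrounding concentrations. Here, GI50 denotes the concentration required for 50% inhibition of growth. TGI: concentration producing complete growth inhibition.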

Each compound was assayed on COLO 205 colon (assay: NCI-60 cell line screen, 48 h).
`O=C1C(Cl)C(c2ccccc2)N1n1cnc2ccccc2c1=O` (stereo unspecified) gave a TGI of over 100 µM. `CN(C)C(=O)OCOC(=O)N(C)C` was tested, and the TGI was over 100 µM. In the case of `COC(=O)c1ccc(/C=C2\N=C(C)OC2=O)cc1`, the TGI is reported as over 100 µM. In the case of `O=C1NC(=O)C(CCO)(c2ccccc2)C(=O)N1`, the TGI is reported as over 100 µM. With `COC(=O)C(=C/c1ccc(OC)cc1)/C(C(=O)O)=C(/C)c1ccccc1` the TGI was over 100 µM. In the case of `C=C1C(=O)O[C@H]2[C@H]1[C@@H](OC(=O)C=C(C)C)CC1=C[C@@H](C[C@@]3(C)O[C@@H]23)OC1=O`, the GI50 is reported as 0.993 µM and 2.27 µM and the TGI is reported as 2.49 µM and 4.17 µM. Compound `CCOC(=O)C(N=Nc1ccc(S(N)(=O)=O)cc1)C(C)=O` (stereo unspecified) has a TGI of over 100 µM. `Cc1ccc(C2CC(c3ccco3)=NN2c2ccccc2)o1` (stereo unspecified) was tested, and the TGI was over 100 µM. With `C/C(=C1/CCCC2(N=NCC2c2ccccc2)C1=O)c1ccccc1` (stereo unspecified) the TGI was 31.1 µM. `CCN1CCN(c2ccc(Nc3ccnc4ccc5nn(C)nc5c34)cc2)CC1` gave a TGI of 18.4 µM. Compound `OCC1OC(n2cnc3c2NC=NC[C@H]3O)C(O)C1O` (stereo partly specified) has a TGI of over 450 µM. Work on `O=[N+]([O-])c1ccc(-n2nnc(C3=NCCCN3)c2-c2ccc(Cl)cc2)cc1` yielded a TGI of over 100 µM. In the case of `COc1cc2c(cc1OC)C(O)[C@H](Br)C(C)(C)O2` (stereo partly specified), the TGI is reported as over 100 µM. Compound `CCCCCC(C[N+]1(C)CCOCC1)C(=O)/C=C/c1ccccc1` (stereo unspecified) has a TGI of 35.9 µM.

Each compound was assayed on DLD-1 colon (assay: NCI-60 cell line screen, 48 h).
`O=C1C(Cl)C(c2ccccc2)N1n1cnc2ccccc2c1=O` (stereo unspecified) was tested, and the TGI was over 100 µM. `CN(C)C(=O)OCOC(=O)N(C)C` showed a TGI of over 100 µM. `COC(=O)c1ccc(/C=C2\N=C(C)OC2=O)cc1` gave a TGI of over 100 µM. Compound `O=C1NC(=O)C(CCO)(c2ccccc2)C(=O)N1` has a TGI of over 100 µM. Compound `CCCCN1C=CN2c3nc4cc(C)c(C)cc4n3C(C(=O)OC)=C(C(=O)OC)C12` (stereo unspecified) has a TGI of over 100 µM. With `COC(=O)C(=C/c1ccc(OC)cc1)/C(C(=O)O)=C(/C)c1ccccc1` the TGI was over 100 µM. `C=C1C(=O)O[C@H]2[C@H]1[C@@H](OC(=O)C=C(C)C)CC1=C[C@@H](C[C@@]3(C)O[C@@H]23)OC1=O` was tested, and the TGI was 11.8 µM. Compound `CCOC(=O)C(N=Nc1ccc(S(N)(=O)=O)cc1)C(C)=O` (stereo unspecified) has a TGI of over 100 µM. Compound `C/C(=C1/CCCC2(N=NCC2c2ccccc2)C1=O)c1ccccc1` (stereo unspecified) has a TGI of over 100 µM. Compound `CCN1CCN(c2ccc(Nc3ccnc4ccc5nn(C)nc5c34)cc2)CC1` has a TGI of 28.3 µM. `OCC1OC(n2cnc3c2NC=NC[C@H]3O)C(O)C1O` (stereo partly specified) was tested, and the TGI was over 450 µM. `O=[N+]([O-])c1ccc(-n2nnc(C3=NCCCN3)c2-c2ccc(Cl)cc2)cc1` gave a TGI of over 100 µM. `COc1cc2c(cc1OC)C(O)[C@H](Br)C(C)(C)O2` (stereo partly specified) gave a TGI of over 100 µM. In the case of `CCCCCC(C[N+]1(C)CCOCC1)C(=O)/C=C/c1ccccc1` (stereo unspecified), the TGI is reported as 18 µM.

Each compound was assayed on DMS 114 small cell lung (assay: NCI-60 cell line screen, 48 h).
Work on `O=C1C(Cl)C(c2ccccc2)N1n1cnc2ccccc2c1=O` (stereo unspecified) yielded a TGI of over 100 µM. Compound `CN(C)C(=O)OCOC(=O)N(C)C` has a TGI of over 100 µM. In the case of `COC(=O)c1ccc(/C=C2\N=C(C)OC2=O)cc1`, the TGI is reported as over 100 µM. For `O=C1NC(=O)C(CCO)(c2ccccc2)C(=O)N1`, the TGI was over 100 µM. With `CCCCN1C=CN2c3nc4cc(C)c(C)cc4n3C(C(=O)OC)=C(C(=O)OC)C12` (stereo unspecified) the TGI was over 100 µM. For `CCOC(=O)C(N=Nc1ccc(S(N)(=O)=O)cc1)C(C)=O` (stereo unspecified), the TGI was over 100 µM. With `Cc1ccc(C2CC(c3ccco3)=NN2c2ccccc2)o1` (stereo unspecified) the TGI was over 100 µM. With `C/C(=C1/CCCC2(N=NCC2c2ccccc2)C1=O)c1ccccc1` (stereo unspecified) the TGI was 33.2 µM. `CCN1CCN(c2ccc(Nc3ccnc4ccc5nn(C)nc5c34)cc2)CC1` was tested, and the TGI was 22.6 µM. `OCC1OC(n2cnc3c2NC=NC[C@H]3O)C(O)C1O` (stereo partly specified) gave a TGI of over 450 µM. `COc1cc2c(cc1OC)C(O)[C@H](Br)C(C)(C)O2` (stereo partly specified) gave a TGI of over 100 µM. Work on `CCCCCC(C[N+]1(C)CCOCC1)C(=O)/C=C/c1ccccc1` (stereo unspecified) yielded a TGI of 26 µM.

What follows are compounds tested on DMS 273 small cell lung (assay: NCI-60 cell line screen, 48 h).
With `O=C1C(Cl)C(c2ccccc2)N1n1cnc2ccccc2c1=O` (stereo unspecified) the TGI was over 100 µM. Compound `CN(C)C(=O)OCOC(=O)N(C)C` has a TGI of over 100 µM. In the case of `COC(=O)c1ccc(/C=C2\N=C(C)OC2=O)cc1`, the TGI is reported as over 100 µM. In the case of `O=C1NC(=O)C(CCO)(c2ccccc2)C(=O)N1`, the TGI is reported as over 100 µM. Compound `CCCCN1C=CN2c3nc4cc(C)c(C)cc4n3C(C(=O)OC)=C(C(=O)OC)C12` (stereo unspecified) has a TGI of over 100 µM. With `COC(=O)C(=C/c1ccc(OC)cc1)/C(C(=O)O)=C(/C)c1ccccc1` the TGI was over 100 µM. With `C=C1C(=O)O[C@H]2[C@H]1[C@@H](OC(=O)C=C(C)C)CC1=C[C@@H](C[C@@]3(C)O[C@@H]23)OC1=O` the GI50 was 24.7 µM. With `CCOC(=O)C(N=Nc1ccc(S(N)(=O)=O)cc1)C(C)=O` (stereo unspecified) the TGI was over 100 µM. Work on `Cc1ccc(C2CC(c3ccco3)=NN2c2ccccc2)o1` (stereo unspecified) yielded a TGI of over 100 µM. With `C/C(=C1/CCCC2(N=NCC2c2ccccc2)C1=O)c1ccccc1` (stereo unspecified) the TGI was 33.3 µM. For `OCC1OC(n2cnc3c2NC=NC[C@H]3O)C(O)C1O` (stereo partly specified), the TGI was over 450 µM. For `O=[N+]([O-])c1ccc(-n2nnc(C3=NCCCN3)c2-c2ccc(Cl)cc2)cc1`, the TGI was over 100 µM. With `COc1cc2c(cc1OC)C(O)[C@H](Br)C(C)(C)O2` (stereo partly specified) the TGI was over 100 µM. Work on `CCCCCC(C[N+]1(C)CCOCC1)C(=O)/C=C/c1ccccc1` (stereo unspecified) yielded a TGI of 11.7 µM.

These compounds were tested on HL-60(TB) leukemia (assay: NCI-60 cell line screen, 48 h).
Compound `O=C1C(Cl)C(c2ccccc2)N1n1cnc2ccccc2c1=O` (stereo unspecified) has a TGI of over 100 µM. `CN(C)C(=O)OCOC(=O)N(C)C` showed a TGI of over 31.6 µM. In the case of `COC(=O)c1ccc(/C=C2\N=C(C)OC2=O)cc1`, the TGI is reported as over 100 µM. With `O=C1NC(=O)C(CCO)(c2ccccc2)C(=O)N1` the TGI was over 100 µM. `CCCCN1C=CN2c3nc4cc(C)c(C)cc4n3C(C(=O)OC)=C(C(=O)OC)C12` (stereo unspecified) showed a TGI of over 100 µM. Compound `COC(=O)C(=C/c1ccc(OC)cc1)/C(C(=O)O)=C(/C)c1ccccc1` has a TGI of over 100 µM. In the case of `C=C1C(=O)O[C@H]2[C@H]1[C@@H](OC(=O)C=C(C)C)CC1=C[C@@H](C[C@@]3(C)O[C@@H]23)OC1=O`, the GI50 is reported as 0.292 µM and 2.24 µM and the TGI is reported as 0.977 µM and 4.9 µM. In the case of `CCOC(=O)C(N=Nc1ccc(S(N)(=O)=O)cc1)C(C)=O` (stereo unspecified), the TGI is reported as over 100 µM. Work on `Cc1ccc(C2CC(c3ccco3)=NN2c2ccccc2)o1` (stereo unspecified) yielded a TGI of over 100 µM. For `C/C(=C1/CCCC2(N=NCC2c2ccccc2)C1=O)c1ccccc1` (stereo unspecified), the TGI was 25.6 µM. For `CCN1CCN(c2ccc(Nc3ccnc4ccc5nn(C)nc5c34)cc2)CC1`, the TGI was over 100 µM. In the case of `OCC1OC(n2cnc3c2NC=NC[C@H]3O)C(O)C1O` (stereo partly specified), the TGI is reported as 284 µM. With `O=[N+]([O-])c1ccc(-n2nnc(C3=NCCCN3)c2-c2ccc(Cl)cc2)cc1` the TGI was over 100 µM. `COc1cc2c(cc1OC)C(O)[C@H](Br)C(C)(C)O2` (stereo partly specified) showed a TGI of over 100 µM. With `CCCCCC(C[N+]1(C)CCOCC1)C(=O)/C=C/c1ccccc1` (stereo unspecified) the TGI was 37.5 µM.

Each compound was assayed on HOP-18 NSCLC (assay: NCI-60 cell line screen, 48 h).
In the case of `O=C1C(Cl)C(c2ccccc2)N1n1cnc2ccccc2c1=O` (stereo unspecified), the TGI is reported as over 100 µM. Work on `CN(C)C(=O)OCOC(=O)N(C)C` yielded a TGI of over 100 µM. With `COC(=O)c1ccc(/C=C2\N=C(C)OC2=O)cc1` the TGI was over 100 µM. `O=C1NC(=O)C(CCO)(c2ccccc2)C(=O)N1` was tested, and the TGI was over 100 µM. In the case of `CCCCN1C=CN2c3nc4cc(C)c(C)cc4n3C(C(=O)OC)=C(C(=O)OC)C12` (stereo unspecified), the TGI is reported as over 100 µM. `COC(=O)C(=C/c1ccc(OC)cc1)/C(C(=O)O)=C(/C)c1ccccc1` was tested, and the TGI was over 100 µM. For `C=C1C(=O)O[C@H]2[C@H]1[C@@H](OC(=O)C=C(C)C)CC1=C[C@@H](C[C@@]3(C)O[C@@H]23)OC1=O`, the TGI was 10.2 µM. Compound `CCOC(=O)C(N=Nc1ccc(S(N)(=O)=O)cc1)C(C)=O` (stereo unspecified) has a TGI of over 100 µM. Compound `C/C(=C1/CCCC2(N=NCC2c2ccccc2)C1=O)c1ccccc1` (stereo unspecified) has a TGI of over 100 µM. `OCC1OC(n2cnc3c2NC=NC[C@H]3O)C(O)C1O` (stereo partly specified) was tested, and the TGI was over 450 µM. `O=[N+]([O-])c1ccc(-n2nnc(C3=NCCCN3)c2-c2ccc(Cl)cc2)cc1` showed a TGI of over 100 µM. With `COc1cc2c(cc1OC)C(O)[C@H](Br)C(C)(C)O2` (stereo partly specified) the TGI was over 100 µM. `CCCCCC(C[N+]1(C)CCOCC1)C(=O)/C=C/c1ccccc1` (stereo unspecified) was tested, and the TGI was 32.1 µM.

What follows are compounds tested on KM20L2 colon (assay: NCI-60 cell line screen, 48 h).
`O=C1C(Cl)C(c2ccccc2)N1n1cnc2ccccc2c1=O` (stereo unspecified) was tested, and the TGI was over 100 µM. `CN(C)C(=O)OCOC(=O)N(C)C` gave a TGI of over 100 µM. With `COC(=O)c1ccc(/C=C2\N=C(C)OC2=O)cc1` the TGI was over 100 µM. With `O=C1NC(=O)C(CCO)(c2ccccc2)C(=O)N1` the TGI was over 100 µM. `CCCCN1C=CN2c3nc4cc(C)c(C)cc4n3C(C(=O)OC)=C(C(=O)OC)C12` (stereo unspecified) showed a TGI of over 100 µM. With `COC(=O)C(=C/c1ccc(OC)cc1)/C(C(=O)O)=C(/C)c1ccccc1` the TGI was over 100 µM. Work on `CCOC(=O)C(N=Nc1ccc(S(N)(=O)=O)cc1)C(C)=O` (stereo unspecified) yielded a TGI of over 100 µM.
